{
  "source": "patent US12251427B2",
  "about": "“Reduced oxygen carriers and their use for the treatment of carboxyhemoglobinemia” (priority 2016, dated 2025)",
  "key": {"[1]": {"conditions": "rats; cited from earlier work"}, "[2]": {"assay": "LD50 dose in mice (calculated)", "conditions": "mice of approximately 25 g"}, "[3]": {"conditions": "cited from earlier work"}, "[4]": {"assay": "rNgb found in urinary bladder after infusion", "format": "in vivo", "conditions": "after 60 minutes, mice sacrificed", "description": "(§1) It was previously shown that exposure of mice to air with 1500 ppm CO gas for an average of 50 minutes caused HbCO levels to increase to 64%+/−1% (PCT Publication No. WO 2014/150413). Prior to exposure, mice were surgically instrumented with placement of femoral artery and vein catheters for blood pressure monitoring, blood sampling and infusions of either recombinant neuroglobin (rNgb), another type of CO scavenging globin protein, or PBS as a control. Mice were infused with 250 μL of 8-12 mM rNgb or PBS within 4 minutes using a Harvard infusion pump. Immediately after infusion and every 5 minutes, 5 μL of blood was collected for measurement of HbCO. […] In particular, after 5 minutes of return to normal air, the HbCO levels dropped by an average of 32.8% in the group that received rNgb versus 13.3% in the group that received PBS (FIG. 1)."}, "[5]": {"tested_on": "HbCO", "assay": "HbCO removal in CO poisoned mice (1500 ppm CO, moderate CO poisoning model)", "format": "in vivo", "conditions": "after 5 minutes of return to normal air, 250 μL of 8-12 mM infused", "description": "FIG. 1 is a graph showing the in vivo binding of CO from hemoglobin by recombinant neuroglobin in a mouse model for moderate CO poisoning.\nas §1"}},
  "data": [
    {"molecule": "O=S([O-])S(=O)[O-].[Na+].[Na+]", "note": "[Dithionite, sodium dithionite]", "values": [
      {"measurement": "LD50", "setting": "[1]", "result": 2500, "unit": "mg/kg body weight"},
      {"measurement": "LD50 dose in mice", "setting": "[2]", "result": "about 62.5 mg"},
      {"measurement": "predicted human LD50", "setting": "[3]", "result": 500, "unit": "mg/kg"}
    ]},
    {"molecule": "rNgb: recombinant neuroglobin, another type of CO scavenging globin protein (protein, UniProt Q9NPG2 1-151, looked up) Neuroglobin: MERPEPELIRQSWRAVSRSPLEHGTVLFARLFALEPDLLPLFQYNCRQFSSPEDCLSSPEFLDHIRKVMLVIDAAVTNVEDLSSLEEYLASLGRKHRAVGVKLSSFSTVGESLLYMLEKCLGPAFTPATRAAWSQLYGAVVQAMSRGWDGE", "values": [
      {"measurement": "rNgb in urinary bladder", "setting": "[4]", "result": "millimolar concentrations"},
      {"measurement": "drop of HbCO levels", "setting": "[5]", "result": 32.8, "unit": "%"}
    ]}
  ]
}
